Measured values taken from patent US20130216579A1, “METHODS AND COMPOSTITIONS FOR GENE EDITING OF A PATHOGEN” (priority 2012, published 2013).

Key:
[1] = test system: GC03^crt-Dd2 G9 and GC03^crt-Dd2 H6 parasite clones; test: In vitro CQ IC50 of pfcrt allelic replacement clones vs GC03 parent; type: cell-based, P. falciparum
Protocol: To quantify the efficiency of pfcrt allelic replacement, clones were generated by limiting dilution and analyzed by PCR. We observed replacement events in 13/82 (15.9%) 106/1 clones and 4/83 (4.8%) GC03 clones (FIG. 3B).
(§1) We also confirmed the CQ resistance phenotype of two gene-edited lines, 106/1^13/15mut2 and 106/1^14/15mut1 (FIG. 4A). […] Parasitemia was determined by flow cytometry after a 72 h incubation with drug. Parasites were stained with 1.6 μM Mito Tracker® (Molecular probes, Invitrogen) and 2×Sybr® Green (Molecular probes, Invitrogen) in 1×PBS supplemented with 5% FBS as described. In vitro IC50 values were calculated by non-linear regression analysis and Mann-Whitney U tests were employed for statistical analysis.

[2] = test system: 106/1^13/15mut2 and 106/1^14/15mut1 parasite lines; test: In vitro CQ IC50 of gene-edited 106/1 lines, parasitemia by flow cytometry after 72 h; type: cell-based, P. falciparum; details: lines 106/1^13/15mut2 and 106/1^14/15mut1, 72 h
Protocol: as §1

CQS strain 106/1 = test: CQ exposure of non-transfected 106/1 cultures; type: cell-based, P. falciparum; details: 33 nM CQ, six independent non-transfected 106/1 cultures
[3] = test system: ZFN 30413 (synthetic construct); test: cell_activity; details: pair with 30415; K76I conversion 29/29 and 25/25 in 106/1 with CQ selection; 2/36 clones in Dd2 without selection
[4] = test system: ZFN 30414 (synthetic construct); test: cell_activity; details: pair with 30415; K76I conversion 38/38, 28/28 and 31/31 in 106/1 with CQ selection; 10/40 clones in Dd2 without selection

Molecule: CCN(CC)CCCC(C)Nc1ccnc2cc(Cl)ccc12 (centres unmarked) [CQ, chloroquine]
- shift in CQ IC50 values compared to the GC03 parent [1]: 4- to 5 fold
- shift in CQ IC50 values relative to the unmodified 106/1 parent line [2]: 5-6 fold
- parasite outcome under CQ exposure (CQS strain 106/1): yielded no parasites after 90 days

Molecule: CTGTTAAGGTCGACAAGGGAAAAAAAAA (double strand) [pfcrt 30413 target site]
- activity [3]: 100%

Molecule: CTGTTAAGGTCGACAAGGGAAAAAAAAA (double strand) [pfcrt 30414 target site]
- activity [4]: 100%
